Assay results: patent US20230416238A1, “N-[(1,3-BENZOXAZOL-2-YL)-HETEROCYCLE]AMIDE DERIVATIVES FOR THE TREATMENT AND PROPHYLAXIS OF HEPATITIS B VIRUS INFECTION” (Hoffmann-La Roche Inc., priority 2020, published 2023)

Experiments:
Type in all cases: cell-based
HBsAg = experiment: PHH HBV natural infection assay, HBsAg (alphalisa); conditions: Hepatitis B virus, Hepatocyte, read-out: HBsAg IC50
Procedure: (§1) Detailed procedures regarding primary human hepatocyte (PHH) HBV natural infection assay are described as below. One tube of frozen PHH (10 million cells) is thawed in 37° C. water bath and then transferred to 20 mL of PHH thawing medium (Sigma, InVitroGRO HT Medium, Cat. S03319) with gently mixing. The cells were then centrifuged at […] for 5 min, the supernatant was discarded and the tube was refilled with 25 mL of PHH plating medium (Sigma, InVitroGRO CP Medium, Cat. S03317). The tube was shaken very gently to re-suspend all cells, and then 50 μL of cells were transferred to each well 384-well collagen I coated plate with appropriate liquid handling equipment, e.g. Integra VIAFLO384 or Agilent Bravo. The cells were then cultured for 24 hours in a cell incubator. For HBV infection, after PHH attachment on the culture plate, the plating medium was removed and replenished with PHH culture medium containing HBV virus. The PHH culture medium was prepared with Dulbecco's Modified Eagle Medium (DMEM)/F12 (1:1 in volume ratio) containing 10% fetal bovine serum (Gibco, Cat. 10099141), 5 ng/mL human epidermal growth factor (Gibco, Cat. PHG0311L), 20 ng/mL dexamethasone (Sigma, Cat. D4902-100 mg), 250 ng/mL human recombinant insulin (Gibco, Cat. 41400045) and 100 U/mL penicillin. HBV virus at 200 genome equivalent (GE) per cell with 4% PEG8000 (Sigma, Cat. P1458) containing culture medium were added to the PHH culture medium for infection. The cells were then cultured for 24 hours in cell incubator. Then the cell culture supernatant was removed. The HBV-infected PHH were cultured with sandwich culture method with MEI culture medium containing 1% DMSO and 0.25 mg/mL matrix gel for 72 hours. The supernatant was then refreshed with PHH culture medium containing different concentrations of testing compounds for two times with 72-hour interval. At the end of treatment, the supernatant was collected for viral markers measurements, including HBsAg, HBeAg, HBV DNA and cytotoxicity. HBsAg and HBeAg were detected using alphalisa method using their specific antibodies. For HBV DNA detection, HBV DNA Quantitative Fluorescence Diagnostic Kit (Sansure Biotech Inc.) was used following the manufacture's protocol. Cytotoxicity was determined using Cell Counting Kit-8 (CCK8, Dojindo Molecular Technologies, Inc.).
(§2) The compounds of the present invention were tested for their capacity to inhibit HBsAg and HBeAg as described herein.

[1] = Cytotoxicity in PHH natural infection assay (Cell Counting Kit-8); conditions: HBV-infected primary human hepatocytes, CCK8
Procedure: as §1

HBeAg = experiment: PHH HBV natural infection assay, HBeAg (alphalisa); conditions: Hepatitis B virus, Hepatocyte, read-out: HBeAg IC50
Procedure: as §1, §2

`O=C(CC1CCOC1)NC1CCC2(CC1)CCN(c1nc3cc(Cl)ccc3o1)CC2` (stereo not drawn) [Example 84, N-[3-(5-chloro-1,3-benzoxazol-2-yl)-3-azaspiro[5.5]undecan-9-yl]-2-tetrahydrofuran-3-yl-acetamide] showed an IC50 (HBsAg) of 2.02 µM, a CC50 at 144 h [1] of 58.6 µM and an IC50 (HBeAg) of 1.37 µM.
For `O=C(NC1CCC2(CC1)CCN(c1nc3cc(Cl)ccc3o1)CC2)[C@@H]1CCS(=O)(=O)C1` [Example 91, (3S)—N-[3-(5-chloro-1,3-benzoxazol-2-yl)-3-azaspiro[5.5]undecan-9-yl]-1,1-dioxo-thiolane-3-carboxamide], the IC50 (HBsAg) was 1.12 µM, the CC50 at 144 h [1] was 89.2 µM and the IC50 (HBeAg) was 0.676 µM.
With `CCS(=O)(=O)c1ccc(C(=O)NC2CC3(C2)CN(c2nc4cc(Cl)ccc4o2)C3)o1` [Example 58, N-[2-(5-chloro-1,3-benzoxazol-2-yl)-2-azaspiro[3.3]heptan-6-yl]-5-ethylsulfonyl-furan-2-carboxamide] the IC50 (HBsAg) was 0.918 µM, the CC50 at 144 h [1] was over 100 µM and the IC50 (HBeAg) was 0.812 µM.
In the case of `CC1(NC(=O)c2ccc(S(C)(=O)=O)o2)CC2(CN(c3nc4cc(Cl)ccc4o3)C2)C1` [Example 67, N-[2-(5-chloro-1,3-benzoxazol-2-yl)-6-methyl-2-azaspiro[3.3]heptan-6-yl]-5-methylsulfonyl-furan-2-carboxamide], the IC50 (HBsAg) is reported as 1.77 µM, the CC50 at 144 h [1] is reported as over 100 µM and the IC50 (HBeAg) is reported as 2.13 µM.
Molecule `O=C(NC1CC2(CCN(c3nc4cc(Cl)ccc4o3)C2)C1)c1ccc(C(F)(F)F)o1` (stereo not drawn) [Example 72, N-[6-(5-chloro-1,3-benzoxazol-2-yl)-6-azaspiro[3.4]octan-2-yl]-5-(trifluoromethyl)furan-2-carboxamide] has an IC50 (HBsAg) of 7.9 µM, a CC50 at 144 h [1] of 81.4 µM and an IC50 (HBeAg) of 4.36 µM.
For `CC1(C(=O)NC2CC3(C2)CN(c2nc4cc(Cl)ccc4o2)C3)CCS(=O)(=O)C1` (stereo not drawn) [Example 33, N-[2-(5-chloro-1,3-benzoxazol-2-yl)-2-azaspiro[3.3]heptan-6-yl]-3-methyl-1,1-dioxo-thiolane-3-carboxamide], the IC50 (HBsAg) was 4.51 µM, the CC50 at 144 h [1] was over 100 µM and the IC50 (HBeAg) was 4.4 µM.
For `O=C(NCC1CCN(c2nc3cc(Cl)ccc3o2)CC1)c1ccc(C(F)(F)F)nc1` [Example 2, N-[[1-(5-chloro-1,3-benzoxazol-2-yl)-4-piperidyl]methyl]-6-(trifluoromethyl)pyridine-3-carboxamide], the IC50 (HBsAg) was 8.1 µM, the CC50 at 144 h [1] was over 10 µM and the IC50 (HBeAg) was 6.31 µM.
Molecule `CS(=O)(=O)N1CCC(CC(=O)NCC2CCN(c3nc4cc(Cl)ccc4o3)CC2)CC1` [Example 19, N-[[1-(5-chloro-1,3-benzoxazol-2-yl)-4-piperidyl]methyl]-2-(1-methylsulfonyl-4-piperidyl)acetamide] has an IC50 (HBsAg) of 7.74 µM, a CC50 at 144 h [1] of over 10 µM and an IC50 (HBeAg) of 3.75 µM.
With `CC(C)Oc1cc(C(=O)NC2CC3(C2)CN(c2nc4ccc(Cl)cc4o2)C3)ccn1` [Example 41, N-[2-(6-chloro-1,3-benzoxazol-2-yl)-2-azaspiro[3.3]heptan-6-yl]-2-isopropoxy-pyridine-4-carboxamide] the IC50 (HBsAg) was 5.87 µM, the CC50 at 144 h [1] was over 10 µM and the IC50 (HBeAg) was 3.81 µM.
Work on `COc1cc(C(=O)NC2CC3(C2)CN(c2nc4cc(Cl)ccc4o2)C3)ccn1` [Example 43, N-[2-(5-chloro-1,3-benzoxazol-2-yl)-2-azaspiro[3.3]heptan-6-yl]-2-methoxy-pyridine-4-carboxamide] yielded an IC50 (HBsAg) of 1.76 µM, a CC50 at 144 h [1] of 84.8 µM and an IC50 (HBeAg) of 1.01 µM.
Work on `NS(=O)(=O)CCC(=O)NC1CCC2(CC1)CCN(c1nc3cc(Cl)ccc3o1)CC2` [Example 82, N-[3-(5-chloro-1,3-benzoxazol-2-yl)-3-azaspiro[5.5]undecan-9-yl]-3-sulfamoyl-propanamide] yielded an IC50 (HBsAg) of 3.09 µM, a CC50 at 144 h [1] of 76.3 µM and an IC50 (HBeAg) of 2.3 µM.
For `C[S+]([O-])c1ccc(C(=O)NC2CCC3(CC2)CCN(c2nc4cc(Cl)ccc4o2)CC3)o1` (stereo not drawn) [Example 116, N-[3-(5-chloro-1,3-benzoxazol-2-yl)-3-azaspiro[5.5]undecan-9-yl]-5-methylsulfinyl-furan-2-carboxamide], the IC50 (HBsAg) was 2.86 µM, the CC50 at 144 h [1] was 68.5 µM and the IC50 (HBeAg) was 2.34 µM.
`N=S(=O)(c1ccc(C(=O)NC2CCC3(CC2)CCN(c2nc4cc(Cl)ccc4o2)CC3)o1)C1CC1` (stereo not drawn) [Example 120, N-[3-(5-chloro-1,3-benzoxazol-2-yl)-3-azaspiro[5.5]undecan-9-yl]-5-(cyclopropylsulfonimidoyl)furan-2-carboxamide] gave an IC50 (HBsAg) of 1.55 µM, a CC50 at 144 h [1] of 66.6 µM and an IC50 (HBeAg) of 1.43 µM.
Work on `CS(=O)(=O)c1ccc(C(=O)NC2CC3(C2)CN(c2nc4cc(Cl)cnc4o2)C3)o1` [Example 48, N-[2-(6-chlorooxazolo[5,4-b]pyridin-2-yl)-2-azaspiro[3.3]heptan-6-yl]-5-methylsulfonyl-furan-2-carboxamide] yielded an IC50 (HBsAg) of 3.8 µM, a CC50 at 144 h [1] of over 100 µM and an IC50 (HBeAg) of 2.95 µM.
`O=C(NCC1CCN(c2nc3cc(Cl)ccc3o2)C1)c1ccnc(S(=O)(=O)C2CC2)c1` (stereo not drawn) [Example 11, N-[[1-(5-chloro-1,3-benzoxazol-2-yl)pyrrolidin-3-yl]methyl]-2-cyclopropylsulfonyl-pyridine-4-carboxamide] showed an IC50 (HBsAg) of 9.14 µM, a CC50 at 144 h [1] of over 10 µM and an IC50 (HBeAg) of 7.85 µM.
For `O=C(NC1CC2(C1)CN(c1nc3cc(Cl)ccc3o1)C2)c1ccc(S(=O)(=O)CC2CC2)o1` [Example 65, N-[2-(5-chloro-1,3-benzoxazol-2-yl)-2-azaspiro[3.3]heptan-6-yl]-5-(cyclopropylmethylsulfonyl)furan-2-carboxamide], the IC50 (HBsAg) was 0.806 µM, the CC50 at 144 h [1] was 92.3 µM and the IC50 (HBeAg) was 1.07 µM.
`O=C(NC1CC2(C1)CN(c1nc3cc(Cl)ccc3o1)C2)c1ccc(S(=O)(=O)NC2CC(F)(F)C2)o1` [Example 60, N-[2-(5-chloro-1,3-benzoxazol-2-yl)-2-azaspiro[3.3]heptan-6-yl]-5-[(3,3-difluorocyclobutyl)sulfamoyl]furan-2-carboxamide] gave an IC50 (HBsAg) of 2.52 µM, a CC50 at 144 h [1] of over 10 µM and an IC50 (HBeAg) of 2.55 µM.
For `O=C(NC1C2CN(c3nc4cc(Cl)ccc4o3)CC21)c1ccc(C(F)(F)F)o1` (stereo not drawn) [Example 125, N-[3-(5-chloro-1,3-benzoxazol-2-yl)-3-azabicyclo[3.1.0]hexan-6-yl]-5-(trifluoromethyl)furan-2-carboxamide], the IC50 (HBsAg) was 4.74 µM, the CC50 at 144 h [1] was over 100 µM and the IC50 (HBeAg) was 5.41 µM.
With `O=C(NC1CC2(C1)CN(c1nc3cc(Cl)ccc3o1)C2)C1CC1(F)F` (stereo not drawn) [Example 30, N-[2-(5-chloro-1,3-benzoxazol-2-yl)-2-azaspiro[3.3]heptan-6-yl]-2,2-difluoro-cyclopropanecarboxamide] the IC50 (HBsAg) was 3.5 µM, the CC50 at 144 h [1] was over 100 µM and the IC50 (HBeAg) was 2.7 µM.
Work on `CS(=O)(=O)c1cc(C(=O)NC2CC3(C2)CN(c2nc4cc(Cl)ccc4o2)C3)ccn1` [Example 52, N-[2-(5-chloro-1,3-benzoxazol-2-yl)-2-azaspiro[3.3]heptan-6-yl]-2-methylsulfonyl-pyridine-4-carboxamide] yielded an IC50 (HBsAg) of 1.5 µM, a CC50 at 144 h [1] of over 100 µM and an IC50 (HBeAg) of 1.26 µM.
With `CCOC(=O)NC1CC2(C1)CN(c1nc3cc(Cl)ccc3o1)C2` [Example 21, Ethyl N-[2-(5-chloro-1,3-benzoxazol-2-yl)-2-azaspiro[3.3]heptan-6-yl]carbamate] the IC50 (HBsAg) was 7.15 µM, the CC50 at 144 h [1] was over 100 µM and the IC50 (HBeAg) was 5.24 µM.
